In patent publication US20230295087A1, “AGONISTS OF ROR GAMMAt” (BRISTOL-MYERS SQUIBB COMPANY, priority 2019, published 2023):

What follows are compounds tested against T1, human RORgT (Homo sapiens, UniProt P51449) (assay: RORgT Gal4 Luciferase Reporter Gene Assay). Conditions: engineered Jurkat cells overexpressing RORgT (LBD or full length) fused with Gal4 Luc reporter; 18 hours at 37° C.; luminescence.
T1 construct: expressed in transfected cells
T1 sequence (P51449 267-516): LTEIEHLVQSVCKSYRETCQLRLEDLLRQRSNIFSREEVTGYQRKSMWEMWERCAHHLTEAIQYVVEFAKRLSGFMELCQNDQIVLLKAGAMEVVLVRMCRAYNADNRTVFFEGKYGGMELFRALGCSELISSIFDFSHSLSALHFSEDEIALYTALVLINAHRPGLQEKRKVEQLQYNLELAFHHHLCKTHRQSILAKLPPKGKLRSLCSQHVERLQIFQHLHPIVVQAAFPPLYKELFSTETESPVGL
Format: cell-based
How it was run: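 Jurkat cells expressing Gal4 Luc with either RORgT LBD (aa267-516) or full-length human RORgT, 10,000 cells/well, treated with compound (40 µM to 0.67 nM final, 3-fold dilutions) for 18 h at 37° C. Steady-Glo luminescence read; inhibition of constitutive activity as % signal-window reduction relative to a control compound.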

Compound	EC50
O=C(C1CCS(=O)(=O)C1)N1CC[C@@]2(S(=O)(=O)c3ccccc3)c3ccc(OCc4c(Cl)cccc4Cl)cc3CC[C@@H]12 (stereo partly drawn) [Example 59, 3-[(3aR,9bR)-9b-(benzenesulfonyl)-7-[(2,6-dichlorophenyl)methoxy]-1H,2H,3H,3aH,4H5H,9bH-benzo[e]indole-3-carbonyl]-1λ^6-thiolane-1,1-dione]	16 nM
CS(=O)(=O)N1CCC(C(=O)N2CC[C@@]3(S(=O)(=O)c4ccccc4)c4ccc(OCc5c(Cl)cccc5Cl)cc4CC[C@@H]23)CC1 [Example 60, 4-[(3aR,9bR)-9b-(benzenesulfonyl)-7-[(2,6-dichlorophenyl)methoxy]-1H,2H,3H,3aH,4H,5H,9bH-benzo[e]indole-3-carbonyl]-1-methanesulfonylpiperidine]	10 nM
CN1CCC(C(=O)N2CC[C@@]3(S(=O)(=O)c4ccccc4)c4ccc(OCc5c(Cl)cccc5Cl)cc4CC[C@@H]23)CC1 [Example 61, 4-[(3aR,9bR)-9b-(benzenesulfonyl)-7-[(2,6-dichlorophenyl)methoxy]-1H,2H,3H,3aH,4H,5H,9bH-benzo[e]indole-3-carbonyl]-I-methylpiperidine]	76 nM
NC(=O)N1CCC(C(=O)N2CC[C@@]3(S(=O)(=O)c4ccccc4)c4ccc(OCc5c(Cl)cccc5Cl)cc4CC[C@@H]23)CC1 [Example 62, 4-[(3aR,9bR)-9b-(benzenesulfonyl)-7-[(2,6-dichlorophenyl)methoxy]-1H,2H,3H,3aH,4H,5H,9bH-benzo[e]indole-3-carbonyl]piperidine-1-carboxamide]	15 nM
O=C(C1CCS(=O)(=O)N1)N1CC[C@@]2(S(=O)(=O)c3ccccc3)c3ccc(OCc4c(Cl)cccc4Cl)cc3CC[C@@H]12 (stereo partly drawn) [Example 63, 3-[(3aR,9bR)-9b-(benzenesulfonyl)-7-[(2,6-dichlorophenyl)methoxy]-1H,2H,3H,3aH,4H,5H,9bH-benzo[e]indole-3-carbonyl]-1λ^6,2-thiazolidine-1,1-dione]	62 nM
O=C(CN1CCCCS1(=O)=O)N1CC[C@@]2(S(=O)(=O)c3ccccc3)c3ccc(OCc4c(Cl)cccc4Cl)cc3CC[C@@H]12 [Example 64, 2-{2-[(3aR,9bR)-9b-(benzenesulfonyl)-7-[(2,6-dichlorophenyl)methoxy]-1H,2H,3H,3aH,4H,5H,9bH-benzo[e]indol-3-yl]-2-oxoethyl}-1λ^6,2-thiazinane-1,1-dione]	921 nM
O=C1NC(C(=O)N2CC[C@@]3(S(=O)(=O)c4ccccc4)c4ccc(OCc5c(Cl)cccc5Cl)cc4CC[C@@H]23)CO1 (stereo partly drawn) [Example 65, 4-[(3aR,9bR)-9b-(benzenesulfonyl)-7-[(2,6-dichlorophenyl)methoxy]-1H,2H,3H,3aH,4H,5H,9bH-benzo[e]indole-3-carbonyl]-1,3-oxazolidin-2-one]	256 nM
O=C(O)C1CCC(C(=O)N2CC[C@@]3(S(=O)(=O)c4ccccc4)c4ccc(OCc5c(Cl)cccc5Cl)cc4CC[C@@H]23)CC1 (stereo partly drawn) [Example 66, 4-[(3aR,9bR)-9b-(benzenesulfonyl)-7-[(2,6-dichlorophenyl)methoxy]-1H,2H,3H,3aH,4H,5H,9bH-benzo[e]indole-3-carbonyl]cyclohexane-1-carboxylic acid]	272 nM
CC(=O)NC1CC2(C1)CC(C(=O)N1CC[C@@]3(S(=O)(=O)c4ccccc4)c4ccc(OCc5c(Cl)cccc5Cl)cc4CC[C@@H]13)C2 (stereo partly drawn) [Example 67, N-{6-[(3aR,9bR)-9b-(benzenesulfonyl)-7-[(2,6-dichlorophenyl)methoxy]-1H,2H,3H,3aH,4H,5H,9bH-benzo[e]indole-3-carbonyl]spiro[3.3]heptan-2-yl}acetamide]	416 nM
CC(=O)N1CC2(CC(C(=O)N3CC[C@@]4(S(=O)(=O)c5ccccc5)c5ccc(OCc6c(Cl)cccc6Cl)cc5CC[C@@H]34)C2)C1 [Example 68, 1-{6-[(3aR,9bR)-9b-(benzenesulfonyl)-7-[(2,6-dichlorophenyl)methoxy]-1H,2H,3H,3aH,4H,5H,9bH-benzo[e]indole-3-carbonyl]-2-azaspiro[3.3]heptan-2-yl}ethan-1-one]	409 nM
CS(=O)(=O)CC(=O)N1CC[C@@]2(S(=O)(=O)c3ccccc3)c3ccc(OCc4c(Cl)cccc4Cl)cc3CC[C@@H]12 [Example 69, 1-[(3aR,9bR)-9b-(benzenesulfonyl)-7-[(2,6-dichlorophenyl)methoxy]-1H,2H,3H,3aH,4H,5H,9bH-benzo[e]indol-3-yl]-2-methanesulfonylethan-1-one]	17 nM
NC(=O)CN1CC[C@@]2(S(=O)(=O)c3ccccc3)c3ccc(OCc4c(Cl)cccc4Cl)cc3CC[C@@H]12 [Example 70, 2-[(3aR,9bR)-9b-(benzenesulfonyl)-7-[(2,6-dichlorophenyl)methoxy]-1H,2H,3H,3aH,4H,5H,9bH-benzo[e]indol-3-yl]acetamide]	153 nM
O=C1CCCN1CCN1CC[C@@]2(S(=O)(=O)c3ccccc3)c3ccc(OCc4c(Cl)cccc4Cl)cc3CC[C@@H]12 [Example 71, 1-{2-[(3aR,9bR)-9b-(benzenesulfonyl)-7-[(2,6-dichlorophenyl)methoxy]-1H,2H,3H,3aH,4H,5H,9bH-benzo[e]indol-3-yl]ethyl}pyrrolidin-2-one]	667 nM
CC(C)(O)C(=O)N1CC[C@@]2(S(=O)(=O)c3ccccc3)c3ccc(OCc4c(Cl)cccc4Cl)cc3CC[C@@H]12 [Example 72, 1-[(3aR,9bR)-9b-(benzenesulfonyl)-7-[(2,6-dichlorophenyl)methoxy]-1H,2H,3H,3aH,4H,5H,9bH-benzo[e]indol-3-yl]-2-hydroxy-2-methylpropan-1-one]	199 nM
CCOC(=O)CNC(=O)N1CC[C@@]2(S(=O)(=O)c3ccccc3)c3ccc(OCc4c(Cl)cccc4Cl)cc3CC[C@@H]12 [Example 73, ethyl 2-{[(3aR,9bR)-9b-(benzenesulfonyl)-7-[(2,6-dichlorophenyl)methoxy]-1H,2H,3H,3aH,4H,5H,9bH-benzo[e]indole-3-carbonyl]amino}acetate]	314 nM
O=C(CN1CCS(=O)(=O)CC1)N1CC[C@@]2(S(=O)(=O)c3ccccc3)c3ccc(OCc4c(Cl)cccc4Cl)cc3CC[C@@H]12 [Example 74, 4-{2-[(3aR,9bR)-9b-(benzenesulfonyl)-7-[(2,6-dichlorophenyl)methoxy]-1H,2H,3H,3aH,4H,5H,9bH-benzo[e]indol-3-yl]-2-oxoethyl}-1λ^6-thiomorpholine-1,1-dione]	14 nM
CS(=O)(=O)N1CC[C@@]2(S(=O)(=O)c3ccccc3)c3ccc(OCc4c(Cl)cccc4Cl)cc3CC[C@@H]12 [Example 75, (3aR,9bR)-9b-(benzenesulfonyl)-7-[(2,6-dichlorophenyl)methoxy]-3-methanesulfonyl-1H,2H,3H,3aH,4H,5H,9bH-benzo[e]indole]	212 nM
O=C1CCCN1CCC(=O)N1CC[C@@]2(S(=O)(=O)c3ccccc3)c3ccc(OCc4c(Cl)cccc4Cl)cc3CC[C@@H]12 [Example 76, 1-{3-[(3aR,9bR)-9b-(benzenesulfonyl)-7-[(2,6-dichlorophenyl)methoxy]-1H,2H,3H,3aH,4H,5H,9bH-benzo[e]indol-3-yl]-3-oxopropyl}pyrrolidin-2-one]	957 nM
CN1CC(C(=O)N2CC[C@@]3(S(=O)(=O)c4ccccc4)c4ccc(OCc5c(Cl)cccc5Cl)cc4CC[C@@H]23)CC1=O (stereo partly drawn) [Example 77, 4-[(3aR,9bR)-9b-(benzenesulfonyl)-7-[(2,6-dichlorophenyl)methoxy]-1H,2H,3H,3aH,4H,5H,9bH-benzo[e]indole-3-carbonyl]-1-methylpyrrolidin-2-one]	19 nM
NC(=O)N1CCC(C(=O)N2CC[C@@]3(S(=O)(=O)c4ccccc4)c4ccc(OCc5ccccc5)cc4CC[C@@H]23)CC1 [Example 78, 4-[(3aR,9bR)-9b-(benzenesulfonyl)-7-(benzyloxy)-1H,2H,3H,3aH,4H,5H,9bH-benzo[e]indole-3-carbonyl]piperidine-1-carboxamide]	140 nM
O=C1CCCN1CC(=O)N1CC[C@@]2(S(=O)(=O)c3ccccc3)c3ccc(OCc4c(Cl)cccc4Cl)cc3CC[C@@H]12 [Example 79, 1-{2-[(3aR,9bR)-9b-(benzenesulfonyl)-7-[(2,6-dichlorophenyl)methoxy]-1H,2H,3H,3aH,4H,5H,9bH-benzo[e]indol-3-yl]-2-oxoethyl}pyrrolidin-2-one]	210 nM
O=C(N1CCOCC1)N1CC[C@@]2(S(=O)(=O)c3ccccc3)c3ccc(OCc4c(Cl)cccc4Cl)cc3CC[C@@H]12 [Example 80, 4-[(3aR,9bR)-9b-(benzenesulfonyl)-7-[(2,6-dichlorophenyl)methoxy]-1H,2H,3H,3aH,4H,5H,9bH-benzo[e]indole-3-carbonyl]morpholine]	102 nM
O=C(O)C12CCC(C(=O)N3CC[C@@]4(S(=O)(=O)c5ccccc5)c5ccc(OCc6c(Cl)cccc6Cl)cc5CC[C@@H]34)(CC1)CC2 [Example 81, 4-[(3aR,9bR)-9b-(benzenesulfonyl)-7-[(2,6-dichlorophenyl)methoxy]-1H,2H,3H,3aH,4H,5H,9bH-benzo[e]indole-3-carbonyl]bicyclo[2.2.2]octane-1-carboxylic acid]	25 nM
CS(=O)(=O)C1CCN(C(=O)N2CC[C@@]3(S(=O)(=O)c4ccccc4)c4ccc(OCc5c(Cl)cccc5Cl)cc4CC[C@@H]23)CC1 [Example 82, 1-[(3aR,9bR)-9b-(benzenesulfonyl)-7-[(2,6-dichlorophenyl)methoxy]-1H,2H,3H,3aH,4H,5H,9bH-benzo[e]indole-3-carbonyl]-4-methanesulfonylpiperidine]	97 nM
CC1(O)CN(C(=O)N2CC[C@@]3(S(=O)(=O)c4ccccc4)c4ccc(OCc5c(Cl)cccc5Cl)cc4CC[C@@H]23)C1 [Example 83, 1-[(3aR,9bR)-9b-(benzenesulfonyl)-7-[(2,6-dichlorophenyl)methoxy]-1H,2H,3H,3aH,4H,5H,9bH-benzo[e]indole-3-carbonyl]-3-methylazetidin-3-ol]	353 nM
